# Earlier results, collected in patent publication US20040053963A1, “Urotensin-II receptor antagonists” (priority 2003, published 2004).
# System: rat-isolated aorta
# Details: Ames et. al. Nature 1999, 401, 282
structure (smiles),measurement,value
CC(C)[C@H](NC(=O)[C@@H]1CSSC[C@H](NC(=O)[C@H](CC(=O)O)NC(=O)[C@@H]2CCCN2C(=O)[C@@H](NC(=O)[C@@H](N)CCC(=O)O)[C@@H](C)O)C(=O)N[C@@H](Cc2ccccc2)C(=O)N[C@@H](Cc2c[nH]c3ccccc23)C(=O)N[C@@H](CCCCN)C(=O)N[C@@H](Cc2ccc(O)cc2)C(=O)N1)C(=O)O [Human Urotensin-II],contractile activity,most potent contractile agonist identified to date
